Test results as given in patent US20200239937A1, “BIOMARKERS FOR DIAGNOSING CONDITIONS” (The Council of the Queensland Institute of Medical Research, priority 2017, published 2020).
Residues, ends and D or L forms follow the SMILES beside them. *: point of attachment. Cbz = O=C(OCc1ccccc1)*

What was measured:
G9a and pVHL = assay: Co-immunoprecipitation of G9a and pVHL; assay type: cell-based; details: MCF7 cells, immunoprecipitated with anti-HA
G9a [1] = assay: G9a immunoblotting of nuclear extracts; assay type: cell-based
G9a [2] = assay: Ubiquitination assay (His-ubiquitin pull-down, G9a immunoblot); assay type: cell-based; details: MCF7 cells, DMOG 1 mM
Procedure: The ubiquitination assay was performed as described previously (Lee, Mol. Cell, 2012). Briefly, cells were transfected with expression constructs including His-tagged ubiquitin and treated with 5 μg/ml of MG132 for 4 hrs, lysed in buffer A (6 M guanidinium-HCl, 100 mM sodium phosphate, 10 mM Tris-HCl (pH 8.0), 5 mM imidazole, and 10 mM β-mercaptoethanol), and incubated with Ni^2+-NTA beads (QIAGEN) for 4 hrs at room temperature. The beads were then washed sequentially with buffer A, buffer B (8 M urea, 100 mM sodium phosphate buffer, 10 mM Tris-HCl (pH 8.0), and 10 mM β-mercaptoethanol), and buffer C (8 M urea, 100 mM sodium phosphate buffer, 10 mM Tris-HCl (pH 6.3), and 10 mM β-mercaptoethanol). Bound proteins were eluted with buffer D (200 mM imidazole, 150 mM Tris-HCl (pH 6.7), 30% glycerol, 0.72 M β-mercaptoethanol, and 5% SDS), and subject to immunoblot analysis.

[3] = tested on: breast cancer cell motility (MCF7, MDA231); assay: Scratch wound assay; assay type: cell-based
MDA231 = assay: SRB assay, MDA231; assay type: cell-based; details: MDA231, 48 hour treatment, normoxic and hypoxic conditions
Procedure: (§1) For proliferation studies, cells (5×10^3) were seeded in 96-place wells and allowed to attach overnight, and then incubated in fresh growth medium in the presence of either the G9a inhibitor UNC0642 (Sigma Aldrich) or the vehicle control DMSO (Sigma Aldrich). Proliferation was evaluated via real-time imaging using IncuCyte Zoom (Essen BioScience) or by performing SRB assays at the end of the treatment. For SRB assays, medium was aspirated and cells were fixed in methylated spirits before being washed with water and stained with SRB (Sigma Aldrich) solution (0.4% in 1% acetic acid). The intensity of the staining was obtained using an optical plate reader at 564 nm. Cell viability was determined using a 3-(4,5-dimethylthiazol-2-yl)-2,5-diphenyltetrazolium bromide ([…]) assay. Cells (3×10^3/well) were seeded directly into 96-well plates and allowed to adhere overnight. 96 hours after drug treatment, 20 μL of MU (5 mg/mL; Sigma-Aldrich) was added. The plates were incubated at 37° C. for 3 hrs before the supernatants were removed, and 100 μL of isopropanol was added to each well. The absorbance value (optical density) of each well was measured at 570 nm.

10 G9a-suppressed genes = assay: Real-time qPCR of the 10 G9a-suppressed genes; assay type: cell-based; details: versus control cells
Procedure: (§2) Quantitative RT-PCR and ChIP assays were conducted as previously described.
Briefly, total RNA was isolated using Trizol (Invitrogen) and reverse transcription was performed from 2.5 μg of total RNA using the Superscript III cDNA synthesis kit (Invitrogen). The abundance of mRNA was detected by an ABI VIIA7 system with SYBR Green Master Mix (Life Technologies). Primer pairs were designed to amplify 90-150 bp mRNA specific fragments and were confirmed as unique products by melting curve analysis. The quantity of mRNA was calculated using ΔΔCt method and normalized by using primers to detect HPRT. All reactions were performed in triplicates.

MCF7 and MDA231 cells = assay: Proliferation by IncuCyte Zoom real-time imaging; assay type: cell-based; details: 48 hours
Procedure: as §1

[4] = tested on: H3K9me2 at promoters of G9a-repressed genes; assay: ChIP of H3K9me2 on promoters of G9a-repressed genes; assay type: cell-based; details: MCF7 cells, 3 μM UNC0642, hypoxia
Procedure: as §2

[5] = tested on: AT3 syngeneic mammary tumor; assay: AT3 syngeneic mammary tumor growth in vivo; parameters: species or system C57BL/6 mice; details: 5 mg/kg intraperitoneally every two days
Procedure: C57BL/6 mice were purchased from the ARC Animal Resources Center. Groups of 8 to 10 mice per experiment were used for experimental tumor assays to ensure adequate power to detect biologic differences. All experiments were approved by the QIMR Berghofer Medical Research Institute Animal Ethics Committee. A total of 1×10^6 AT3 tumor cells were subcutaneously injected into mice in a 100 μL volume (on day 0) and UNC0642 administered every two days between days 16 and day 36. Tumor growth was measured using a digital calliper, and tumor volumes are presented as mean±SEM.

H3K9me2 = assay: Immunoblotting of global H3K9me2; assay type: cell-based; details: MCF7 nuclear extracts, 6 hrs
[6] = tested on: Bre80 and MCF10A breast epithelial cells; assay: Cell survival (MTT) in normal-like breast epithelial cells; assay type: cell-based; details: UNC0642 at 5 μM
Procedure: as §1

breast cancer cell lines = assay: Cell survival (MTT) in breast cancer cell lines; assay type: cell-based; details: UNC0642 at 5 μM
Procedure: as §1

MCF7 = assay: SRB assay, MCF7; assay type: cell-based; details: MCF7, 48 hour treatment, normoxic and hypoxic conditions
Procedure: as §1

Which results are given for `COC(=O)CNC(=O)C(=O)OC` [DMOG, dimethyloxaloylglycine]?
interaction between G9a and pVHL (G9a and pVHL): significantly inhibited; G9a protein levels (G9a [1]; MCF7 and MDA231 cells, DMOG 1 mM, DFA 100 μM): increase in G9a protein levels; level of G9a polyubiquitination (G9a [2]): markedly reduced

With `COc1cc2c(NC3CCN(C(C)C)CC3)nc(N3CCC(F)(F)CC3)nc2cc1OCCCN1CCCC1` [UNC0642] as the compound, how does the wound closure ([3]; hypoxic condition, 72 hours) read?
The wound closure was “not able to close the wound even after 72 hours”.

And the “cellular migration (denuded area versus vehicle control)” value ([3]; normoxic condition)?
Its value is “inhibit cellular migration”.

And the “cells present after treatment” value (MDA231)?
Its value is “less than 20%”.

What about the “hypoxia repression of expression of the 10 G9a-suppressed genes” value (10 G9a-suppressed genes) of the same compound?
Its value is “repression was abolished”.

What about the “confluency at the end of the experiment, fold less compared to vehicle control” value (MCF7 and MDA231 cells; 2-3 μM) of the same compound?
Its value is 2 to 2.5 fold.

And the “proliferation compared to vehicle control” value (MCF7 and MDA231 cells; various concentrations)?
The value was “dose-dependent reduction in proliferation”.

And the “hypoxia-mediated increase in H3K9me2 in promoters of G9a-repressed genes” value [4]?
Its value is “almost completely abrogated or significantly reduced”.

And the “mean tumor volume at end-point versus vehicle treated group” value [5]?
The value was “significantly lower”.

And the tumor growth ([5]; days 16 to 36)?
Its tumor growth is “significantly reduced tumor growth”.

What about the “global H3K9me2” value (H3K9me2) of the same compound?
Its value is “significant reduction”.

And the cell survival [6]?
The cell survival was “unaffected”.

And the “survival of cancer cell lines” value (breast cancer cell lines)?
The value was “significantly attenuated”.

And the “cells present after treatment” value (MCF7)?
Its value is “less than 20%”.

`CC(C)C[C@@H](C=O)NC(=O)[C@H](CC(C)C)NC(=O)[C@H](CC(C)C)NC(=O)OCc1ccccc1` [MG132] (Cbz-Leu-Leu-Leu-aldehyde) was tested. Which G9a protein level (G9a [1]; MCF7 cells, normoxia, 9 hrs, 20 μM MG132) did it give?
Its G9a protein level is “increase in G9a protein level”.
